Results as given in PMC11823646, “Population pharmacokinetics of caspofungin in critically ill patients receiving extracorporeal membrane oxygenation—an ASAP ECMO study” (Antimicrobial Agents and Chemotherapy, 2024).

What was measured:
[1] = human, in vivo; cited from earlier work
Description: It is challenging to ascertain the optimal dosing regimen for caspofungin based on MIC breakpoints. The European Committee on Antimicrobial Susceptibility Testing (EUCAST) MIC breakpoints have yet to be established for caspofungin against Candida spp. due to significant interlaboratory variation in MIC reporting ([18]). Until this problem is resolved, Candida isolates that are susceptible to anidulafungin and micafungin should also be considered susceptible to caspofungin.

[2] = human, in vivo; cited from earlier work; remark: listed apart in the source
[3] = parameters: method as in PMID 17660480, PMID 11850256; details: human, in vivo; cited from earlier work
[4] = Population pharmacokinetics of caspofungin in critically ill patients receiving ECMO; type: in vivo, human
Method: The present analysis is part of the ASAP ECMO study program that was conducted from November 2012 to November 2019 ([8]). The ASAP ECMO study was a prospective, open-labeled multicenter pharmacokinetic study performed in six ICUs across Australia, New Zealand, South Korea, and Switzerland. A detailed study protocol has been previously described elsewhere ([8], [9]), and as such, is only briefly outlined in this paper.
Patients were eligible for recruitment if they were adult (18–90 years old) ICU patients who were receiving caspofungin while undergoing ECMO therapy for cardiac and/or respiratory failure. Patients were excluded if they required massive blood transfusion (i.e., >50% of blood volume in the preceding 8 hours), received therapeutic plasma exchange in the preceding 24 hours, had bilirubin >150 µmol/L, were pregnant, or were known to be allergic to caspofungin.
Caspofungin was reconstituted and administered as an intermittent intravenous infusion in accordance with the standard administration protocol at each participating center. Caspofungin dosing regimens, ECMO modalities/configurations, and all other subsequent patient management (e.g., RRT application) were determined by the treating clinician in accordance with local clinical guidelines and practices.
Pharmacokinetic sampling was performed during a single dosing interval once the patient had been stabilized on ECMO. Blood samples were drawn from an existing arterial line and were collected into lithium-heparinized tubes. Blood samples were collected at 0, 0.25, 0.5, 0.75, 1, 1.5, 2, 3, 6, 8, 12, and 24 hours after commencement of infusion.
The blood samples were centrifuged at 3,000 × g for 10 minutes to obtain plasma, which was then frozen at –80°C and stored locally at participating sites. The frozen plasma samples were shipped on dry ice by a commercial courier company to the central bioanalysis laboratory at the University of Queensland Centre for Clinical Research (UQCCR) for bioanalysis.
Total caspofungin concentrations in plasma were measured by a validated ultra-high performance liquid chromatography method on a Nexera X2 system connected to a Shimadzu 8030 + triple quadrupole mass spectrometer (Shimadzu Corporation, Kyoto, Japan). Dicloxacillin was used as the internal standard. The assay was performed in batches, and samples were analyzed concurrently with calibration standards and quality-control replicates at high (18 mg/L), medium (3 mg/L), and low (0.6 mg/L) concentrations. The assay limit for caspofungin in plasma was 0.1 mg/L and linearity was established within a range of 0.1–20 mg/L. Precision and accuracy at three different concentrations were all within 12%. Bioanalysis methods were performed in accordance with the U.S. Food and Drug Administration’s guidance for industry on bioanalysis ([10]).
Plasma concentration-time data for caspofungin were analyzed using a nonlinear mixed-effect modeling approach in Monolix version 2021R2 (Lixoft, Antony, France) implementing the stochastic approximation expectation maximization (SAEM) algorithm. Plasma concentration-time data for caspofungin were fitted to one- and two-compartment disposition models with first-order elimination. Between-subject variability (BSV or ω) was described using an exponential model: […]

## CC[C@H](C)C[C@H](C)CCCCCCCCC(=O)N[C@H]1C[C@@H](O)[C@@H](NCCN)NC(=O)[C@@H]2[C@@H](O)CCN2C(=O)[C@H]([C@H](O)CCN)NC(=O)[C@H]([C@H](O)[C@@H](O)c2ccc(O)cc2)NC(=O)[C@@H]2C[C@@H](O)CN2C(=O)[C@H]([C@@H](C)O)NC1=O [caspofungin]
[1]
  dose demonstrated to be safe: up to 200 mg/day
[2]
  AUC0–24 exposure reported in ICU patients: 74 to 135 µg·h/mL
  typical clearance in other studies: 0.27 to 0.98 L/h
  typical volume of distribution in other studies: 6.19 to 20.91 L
[3]
  AUC0–24 exposure in healthy volunteers: 98 µg·h/mL
[4]; ECMO duration, mode and flow rate tested as covariates, no significant effect
  impact of ECMO on caspofungin pharmacokinetics: negligible impact
[4]; exponent in V=Vpop × (LBW/58.9)^1.24, final model
  LBW effect on V, Estimate (%RSE): 1.24 (23.3)
[4]; human, plasma, 8 critically ill patients on ECMO, maintenance dose 50 or 70 mg daily IV, median, read-out: median AUC0–24 exposure
  AUC(0-t): 115 µg·h/mL
[4]; typical population value, final one-compartment model with first-order elimination, 8 ECMO patients, 64 total plasma concentrations (UHPLC-MS/MS), IV infusion, LD 70 mg then 50 or 70 mg daily
  CL, Estimate (%RSE): 0.55 (11.9) L/h
[4]; typical population value, final one-compartment model, LBW centred on 58.9 kg, 8 ECMO patients, 64 total plasma concentrations
  V, Estimate (%RSE): 8.13 (7.15) L
